Reference: ChEMBL document CHEMBL3124796, “Suzuki coupling based synthesis and in vitro cytotoxic evaluation of 7-heteroaryl-substituted camptothecin analogs” (Bioorg Med Chem Lett, 2014)
Activity calls are given as the source filed them. No cut-off for these calls is given here.

Assays:
[1] = biological target: T1, DNA topoisomerase 1 (Homo sapiens) (UniProt P11387); test: Inhibition of topoisomerase 1 (unknown origin)-mediated relaxation of supercoiled pBR322 DNA at 100 uM by agarose gel electrophoresis
T1 sequence (whole entry): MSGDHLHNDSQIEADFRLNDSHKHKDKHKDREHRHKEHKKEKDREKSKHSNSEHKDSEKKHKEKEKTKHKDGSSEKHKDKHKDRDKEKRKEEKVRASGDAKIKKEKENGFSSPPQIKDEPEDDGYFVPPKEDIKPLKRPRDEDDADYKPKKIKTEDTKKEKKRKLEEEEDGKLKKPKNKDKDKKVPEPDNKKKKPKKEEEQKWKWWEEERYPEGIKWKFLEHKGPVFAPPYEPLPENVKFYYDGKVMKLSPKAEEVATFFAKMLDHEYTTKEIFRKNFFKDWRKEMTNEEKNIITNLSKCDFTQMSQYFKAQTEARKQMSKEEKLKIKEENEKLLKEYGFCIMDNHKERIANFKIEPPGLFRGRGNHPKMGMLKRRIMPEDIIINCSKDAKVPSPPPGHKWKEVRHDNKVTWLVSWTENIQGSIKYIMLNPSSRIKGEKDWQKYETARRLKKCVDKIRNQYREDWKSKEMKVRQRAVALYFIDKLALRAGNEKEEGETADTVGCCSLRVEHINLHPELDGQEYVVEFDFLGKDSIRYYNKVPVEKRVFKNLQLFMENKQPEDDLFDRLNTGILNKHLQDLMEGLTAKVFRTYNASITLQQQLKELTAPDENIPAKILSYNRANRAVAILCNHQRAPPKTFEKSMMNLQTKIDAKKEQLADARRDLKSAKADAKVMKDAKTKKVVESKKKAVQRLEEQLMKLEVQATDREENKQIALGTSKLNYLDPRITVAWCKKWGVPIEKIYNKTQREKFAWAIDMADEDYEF

HT-29 = test: Cytotoxicity against human HT-29 cells assessed as growth inhibition after 3 days by SRB assay; assay type: functional, cell-based; details: HT-29, 72 h
HCT-116 [2] = test: Cytotoxicity against human HCT116 cells assessed as growth inhibition after 3 days by SRB assay; assay type: functional, cell-based; details: HCT-116, 72 h
A549 [3] = test: Cytotoxicity against human A549 cells assessed as growth inhibition after 3 days by SRB assay; assay type: functional, cell-based; details: A549, 72 h
A549 [4] = test: Cytotoxicity against human A549 cells; assay type: functional, cell-based
HCT-116 [5] = test: Cytotoxicity against human HCT116 cells; assay type: functional, cell-based
MDA-MB-231 = test: Cytotoxicity against human MDA-MB-231 cells; assay type: functional, cell-based
[6] = biological target: T1, DNA topoisomerase 1 (Homo sapiens); test: Inhibition of topoisomerase 1 (unknown origin)-mediated relaxation of supercoiled pBR322 DNA at 10 uM by agarose gel electrophoresis

SMILES	inhibition [1]	IC50 (HT-29)	IC50 (HCT-116 [2])	IC50 (A549 [3])	IC50 (A549 [4])	IC50 (HCT-116 [5])	IC50 (MDA-MB-231)	inhibition [6]
CC[C@@]1(O)C(=O)OCc2c1cc1n(c2=O)Cc2c-1nc1ccccc1c2-c1cnn(C2CCCCO2)c1 (stereo partly drawn)	Active	90.7 nM	40 nM	7.26 nM				
CC[C@@]1(O)C(=O)OCc2c1cc1n(c2=O)Cc2c-1nc1ccccc1c2-c1ccc2cn[nH]c2c1	Active	57 nM	11 nM	3.18 nM				
CCCCn1cc(-c2c3c(nc4ccccc24)-c2cc4c(c(=O)n2C3)COC(=O)[C@]4(O)CC)nn1					< 10 nM	14 nM	< 10 nM	
CC[C@@]1(O)C(=O)OCc2c1cc1n(c2=O)Cc2c-1nc1ccccc1c2-c1ccnn1C	inactive	> 1000 nM	458 nM	56.3 nM				
CC[C@@]1(O)C(=O)OCc2c1cc1n(c2=O)Cc2c-1nc1ccccc1c2-c1ccncc1	inactive	98.7 nM	45.5 nM	6.33 nM				
CC[C@@]1(O)C(=O)OCc2c1cc1n(c2=O)Cc2c-1nc1ccccc1c2-c1cnn(C)c1	Active	21.8 nM	3.51 nM	2.85 nM				Active
CC[C@@]1(O)C(=O)OCc2c1cc1n(c2=O)Cc2c-1nc1ccccc1c2-c1ccc2cc[nH]c2c1	Active	231 nM	83.5 nM	11.1 nM				
CCc1c2c(nc3ccc(O)cc13)-c1cc3c(c(=O)n1C2)COC(=O)[C@]3(O)CC [7-ETHYL-10-HYDROXYCAMPTOTHECIN]		107 nM	31 nM	2.72 nM	259 nM	166 nM	176 nM	
CC[C@@]1(O)C(=O)OCc2c1cc1n(c2=O)Cc2c-1nc1ccccc1c2-c1cccnc1	inactive	133 nM	60 nM	5 nM				
